This note sets out measurements from patent US8138188B2, “Melanocortin type 4 receptor agonist piperidinoylpyrrolidines” (Pfizer Inc., priority 2006, dated 2012).

By Ki is commonly meant a measure of affinity in units of concentration, obtained from inhibition or displacement. Higher therefore signals lower affinity.

Assay [1] concerns the target T1, MC4 receptor (MC4R) (Homo sapiens, UniProt P32245).
T1 construct: expressed in transfected cells; host or cells: CHO-CRE MC4R cells (membranes)
The experiment in a line: Nle4, D-Phe7-α-MSH inhibition at the MC4 receptor (SPA competition binding vs [125I] Nle4, D-Phe7-α-MSH). The settings on record: vs 0.06 nM [125I] Nle4, D-Phe7-α-MSH, CHO-CRE MC4R cell membranes. The text has this:
Nle4, D-Phe7-α-MSH Inhibition at the MC4 Receptor
Nle4, Nle4, D-Phe7-α-MSH is a stable analogue of melanocyte-stimulating hormone (MSH), which is an agonist at the MC4 receptor (MC4R). Compounds can be evaluated for their ability to inhibit Nle4, Nle4, D-Phe7-α-MSH binding to membranes from cells expressing the MC4R using a competition binding assay versus [^125I] Nle4, D-Phe7-α-MSH.
Cells expressing the MC4R were subject to homogenisation and the membrane fragment isolated by differential centrifugation. CHO-CRE MC4R cell membranes were coupled to PVT-PEI-WGA SPA Beads type A for 2 hours, spun at 1000 RPM for 5 mins and suspended to a concentration of 300 ug bead/ml (0.15 ug membrane, 15 ug bead per well). Bead/membrane mix was incubated with 0.06 nM [^125I] Nle4, D-Phe7-α-MSH and 11 half-log concentrations of competitor ligand, in duplicate, in a total volume of 50 μl buffer per well (25 mM HEPES, 1 mM MgCl2, 2.5 mM CaCl2, 1% Pluronic F68, 1 complete EDTA protease inhibitor tablet/50 ml pH7). Non-specific binding was determined by the inclusion of 100 nM SHU9119. The reaction was initiated by the addition of bead/membranes and plates were incubated at room temperature for 12 hours (the first hour on a plate shaker), after which the amount of radioactivity present was determined using a Wallac plate counter. Ki values were determined by data analysis using appropriate software.

The next assay concerns the target T2, MC3 receptor (MC3R) (Homo sapiens, UniProt P41968).
T2 construct: expressed in transfected cells; host or cells: CHO-CRE MC3R cells (membranes)
Nature of the assay: Nle4, D-Phe7-α-MSH inhibition at the MC3 receptor (SPA competition binding). The settings on record: vs 0.06 nM Nle4, D-Phe7-α-MSH, CHO-CRE MC3R cell membranes. The text has this: Nle4, D-Phe7-α-MSH Inhibition at the MC3 Receptor
Nle4, D-Phe7-α-MSH is a stable analogue of melanocyte-stimulating hormone (MSH), which is an agonist at the MC3 receptor (MC3R). Compounds can be evaluated for their ability to inhibit Nle4, D-Phe7-α-MSH binding to membranes from cells expressing the MC3R using a competition binding assay versus [^125I] Nle4, D-Phe7-α-MSH.
Cells expressing the MC3R were subject to homogenisation and the membrane fragment isolated by differential centrifugation. CHO-CRE MC3R cell membranes were coupled to PVT-PEI-WGA SPA Beads type A for 2 hours, spun at 1000 RPM for 5 mins and suspended to a final assay concentration of 800 ug bead/ml (1.2 ug membrane, 40 ug bead per well). Bead/membrane mix was incubated with 0.06 nM Nle4, D-Phe7-α-MSH and 11 half-log concentrations of competitor ligand, in duplicate, in a total volume of 50 μl buffer per well (25 mM HEPES, 1 mM MgCl2, 2.5 mM CaCl2, 1% Pluronic F68, 1 complete EDTA protease inhibitor tablet/50 ml pH7).
Non-specific binding was determined by the inclusion of 100 nM SHU9119. The reaction was initiated by the addition of bead/membranes and plates were incubated at room temperature for 12 hours (the first hour on a plate shaker), after which the amount of radioactivity present was determined using a Wallac plate counter. Ki values were determined by data analysis using appropriate software.

In assay [2] the target is T1, MC4 receptor (MC4R). The experiment in a line: AGRP inhibition: competition binding vs [125I]AGRP(87-132) at CHO-CRE MC4R cell membranes. The settings on record: vs 0.3 nM [125I]AGRP(87-132). An excerpt:
Agouti related protein (AGRP) is a high affinity endogenous antagonist/inverse agonist for the MC4 receptor (Lu et al., 1994, Nature 371: 799-802; Oilman et al., 1997, Science 278: 135-138). […] It has been ascertained that this C-terminal fragment of AGRP contains the MC4R binding determinants (Yang et al., 1999, Mol Endocrinol 13: 148-155), therefore, compounds can be evaluated for their ability to inhibit AGRP binding to membranes from cells expressing the MC4R using a competition binding assay versus [^125I]AGRP(87-132). To this end cells expressing the MC4R were subject to homogenisation and the membrane fragment isolated by differential centrifugation. CHO-CRE MC4R cell membranes (12 μg protein) were incubated with 0.3 nM [^125I]AGRP(87-132) and 11 half-log concentrations of competitor ligand, in duplicate, in a total volume of 100 μl buffer (25 mM HEPES, 1 mM MgCl2, 2.5 mM CaCl2, 0.5% BSA pH 7.0). Non-specific binding was determined by the inclusion of 1 μM SHU9119. The reaction was initiated by the addition of membranes and plates were incubated at room temperature for 2 hours. The reaction was terminated by rapid filtration onto GF/C filters (presoaked in 1% PEI) using a vacuum harvester followed by five 200 μl washes of ice cold wash buffer (Binding buffer containing 500 mM NaCl). The filters were soaked in 50 μl scintillation fluid and the amount of radioactivity present was determined by liquid scintillation counting. Ki values were determined by data analysis using appropriate software.

T2 sequence (P41968 whole entry): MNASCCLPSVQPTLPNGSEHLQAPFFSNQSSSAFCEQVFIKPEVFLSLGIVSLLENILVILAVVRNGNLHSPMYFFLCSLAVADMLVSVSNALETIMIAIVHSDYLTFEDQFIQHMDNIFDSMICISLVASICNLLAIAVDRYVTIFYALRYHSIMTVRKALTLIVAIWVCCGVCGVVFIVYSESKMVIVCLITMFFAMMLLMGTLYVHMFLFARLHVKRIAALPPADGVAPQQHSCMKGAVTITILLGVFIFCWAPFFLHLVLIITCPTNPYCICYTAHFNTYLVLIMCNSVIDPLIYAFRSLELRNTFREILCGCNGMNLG
T1 sequence (P32245 whole entry): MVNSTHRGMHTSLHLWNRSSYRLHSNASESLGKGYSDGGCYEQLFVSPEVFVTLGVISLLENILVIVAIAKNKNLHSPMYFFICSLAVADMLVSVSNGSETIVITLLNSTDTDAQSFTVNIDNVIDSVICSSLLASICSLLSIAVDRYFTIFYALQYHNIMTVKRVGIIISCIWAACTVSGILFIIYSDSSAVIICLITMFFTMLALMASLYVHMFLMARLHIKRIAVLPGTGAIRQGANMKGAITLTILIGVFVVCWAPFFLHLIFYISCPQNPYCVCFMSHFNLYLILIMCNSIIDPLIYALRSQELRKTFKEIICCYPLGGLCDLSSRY

With `C[C@@H]1CN(C(=O)[C@@H]2CN(c3ccc(C#N)nn3)C[C@H]2c2ccc(Cl)cn2)C[C@H](C)[C@@]1(O)c1ccc(F)cc1` [Example 2, 6-[(3S,4S)-3-(5-Chloropyridin-2-yl)-4-{[(3R,4R,5S)-4-(4-fluorophenyl)-4-hydroxy-3,5-dimethylpiperidin-1-yl]carbonyl}pyrrolidin-1-yl]pyridazine-3-carbonitrile], the Ki on MC4 receptor (MC4R) [1] is 27 nM; at MC3 receptor (MC3R), 124 nM; at MC4 receptor (MC4R) [2], 59 nM.

Consider `C[C@@H]1CN(C(=O)[C@@H]2CN(c3ccc(=O)n(C)n3)C[C@H]2c2ccc(Cl)cn2)C[C@H](C)[C@@]1(O)c1ccc(Cl)cn1` [Example 10], for which the Ki on MC4 receptor (MC4R) [1] is 276 nM; on MC3 receptor (MC3R), 977 nM; on MC4 receptor (MC4R) [2], 223 nM.

For the molecule `C[C@@H]1CN(C(=O)[C@@H]2CN(c3ccc(=O)n(C)n3)C[C@H]2c2ccc(Cl)cn2)C[C@H](C)[C@@]1(O)C1CCCCC1` [Example 17], the Ki on MC4 receptor (MC4R) [1] is 112 nM; at MC3 receptor (MC3R) it was 332 nM; at MC4 receptor (MC4R) [2], 20 nM.

On to `CC1CN(C(=O)C2CN(c3ccc(=O)n(C)n3)CC2c2ccc(Cl)cn2)CC(C)C1(O)c1ccc(F)c(F)c1` (stereo not drawn) [Example 19], for which the Ki stood at 85.4 nM at MC4 receptor (MC4R) [1], 568 nM on MC3 receptor (MC3R) and 79 nM at MC4 receptor (MC4R) [2].

With `COc1ccc(C2(O)C(C)CN(C(=O)C3CN(c4ccc(=O)n(C)n4)CC3c3ccc(Cl)cn3)CC2C)cc1` (stereo not drawn) [Example 20], the Ki was 251 nM on MC4 receptor (MC4R) [1], 1020 nM at MC3 receptor (MC3R) and 253 nM on MC4 receptor (MC4R) [2].

As to `CC1CN(C(=O)C2CN(c3ccc(=O)n(C)n3)CC2c2ccc(Cl)cn2)CC(C)C1(O)c1ccc(Cl)cc1` (stereo not drawn) [Example 23], the inhibition constant Ki was determined as 65.7 nM at MC4 receptor (MC4R) [1], 264 nM on MC3 receptor (MC3R) and 79 nM on MC4 receptor (MC4R) [2].

As to `CC1CN(C(=O)C2CN(c3cncc(F)c3)CC2c2ccc(Cl)cn2)CC(C)C1(O)c1ccc(F)cc1` (stereo not drawn) [Example 25], the figures for the Ki at MC4 receptor (MC4R) [1], at MC3 receptor (MC3R) and on MC4 receptor (MC4R) [2] were 10.9 nM, < 0.105 nM and 278 nM, respectively.

Turning to `C[C@@H]1CN(C(=O)[C@@H]2CN(c3ccc(C#N)nn3)C[C@H]2c2ccc(F)cn2)C[C@H](C)[C@@]1(O)c1ccc(Cl)cc1` [Example 32], the Ki on MC4 receptor (MC4R) [1] stood at 150 nM; at MC3 receptor (MC3R), 456 nM; at MC4 receptor (MC4R) [2], 160 nM.
